Patent US20220388964A1 (HiberCell, Inc., priority 2019, published 2022)

Target: GCN2 (Homo sapiens, UniProt Q9P2K8)
Assay: TR-FRET biochemical assay for inhibition of GCN2 (Example 108, for Examples 73-105)

Chain of GCN2 (Q9P2K8 whole entry): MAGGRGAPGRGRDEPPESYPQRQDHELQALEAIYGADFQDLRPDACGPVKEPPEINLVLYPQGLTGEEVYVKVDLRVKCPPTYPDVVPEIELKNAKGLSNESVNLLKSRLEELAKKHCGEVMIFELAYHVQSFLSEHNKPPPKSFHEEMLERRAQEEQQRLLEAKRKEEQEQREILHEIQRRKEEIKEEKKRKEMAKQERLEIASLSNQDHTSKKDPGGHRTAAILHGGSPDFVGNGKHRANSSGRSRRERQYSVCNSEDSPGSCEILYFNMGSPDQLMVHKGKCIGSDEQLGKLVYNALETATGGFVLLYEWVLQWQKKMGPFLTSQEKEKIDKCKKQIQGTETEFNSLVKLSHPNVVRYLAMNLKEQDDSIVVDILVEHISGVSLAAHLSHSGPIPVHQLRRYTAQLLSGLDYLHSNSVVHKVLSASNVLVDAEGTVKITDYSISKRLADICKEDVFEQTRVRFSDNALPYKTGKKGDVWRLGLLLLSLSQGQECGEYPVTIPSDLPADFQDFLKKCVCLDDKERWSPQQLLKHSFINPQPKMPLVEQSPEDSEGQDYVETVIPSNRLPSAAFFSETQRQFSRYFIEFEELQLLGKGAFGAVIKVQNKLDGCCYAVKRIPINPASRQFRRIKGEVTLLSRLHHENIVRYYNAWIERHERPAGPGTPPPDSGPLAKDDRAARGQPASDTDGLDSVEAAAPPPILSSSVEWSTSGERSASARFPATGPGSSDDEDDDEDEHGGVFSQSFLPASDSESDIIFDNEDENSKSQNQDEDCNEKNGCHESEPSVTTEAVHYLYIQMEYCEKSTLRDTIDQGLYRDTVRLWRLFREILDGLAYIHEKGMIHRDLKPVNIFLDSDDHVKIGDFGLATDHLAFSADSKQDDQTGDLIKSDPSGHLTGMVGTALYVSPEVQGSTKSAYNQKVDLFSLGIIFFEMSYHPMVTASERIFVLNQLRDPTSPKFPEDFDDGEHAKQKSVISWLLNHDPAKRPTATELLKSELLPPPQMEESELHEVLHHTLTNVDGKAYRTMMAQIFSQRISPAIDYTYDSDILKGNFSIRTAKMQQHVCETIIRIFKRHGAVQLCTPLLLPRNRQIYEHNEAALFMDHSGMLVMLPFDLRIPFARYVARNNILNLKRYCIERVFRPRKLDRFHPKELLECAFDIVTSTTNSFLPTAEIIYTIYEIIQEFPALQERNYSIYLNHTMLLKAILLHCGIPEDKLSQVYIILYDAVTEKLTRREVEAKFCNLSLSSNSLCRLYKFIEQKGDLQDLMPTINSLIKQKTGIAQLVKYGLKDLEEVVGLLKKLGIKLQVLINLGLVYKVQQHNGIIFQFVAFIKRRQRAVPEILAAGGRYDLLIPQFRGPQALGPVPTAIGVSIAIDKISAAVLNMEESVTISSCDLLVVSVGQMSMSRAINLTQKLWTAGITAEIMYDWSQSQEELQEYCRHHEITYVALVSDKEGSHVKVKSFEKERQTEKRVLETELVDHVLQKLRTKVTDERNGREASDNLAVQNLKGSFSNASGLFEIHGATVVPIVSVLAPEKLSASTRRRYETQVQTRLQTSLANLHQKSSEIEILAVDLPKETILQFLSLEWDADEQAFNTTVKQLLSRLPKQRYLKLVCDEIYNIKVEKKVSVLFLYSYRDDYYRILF

SMILES	IC50 [nM]
CNC(=O)c1n[nH]c2c(F)c(-c3c(F)ccc(NS(=O)(=O)CC4CCC(O)C4)c3F)ccc12 (mixture of isomers) [Example 78, 6-[2,6-difluoro-3-[(3-hydroxycyclopentyl)methanesulfonamido]phenyl]-7-fluoro-N-methyl-1H-indazole-3-carboxamide]	2500 to 10000
CNC(=O)c1n[nH]c2c(F)c(-c3c(F)ccc(NS(=O)(=O)CC4CCCC4)c3F)ccc12 [Example 74, 6-[3-(cyclopentylmethanesulfonamido)-2,6-difluorophenyl]-7-fluoro-N-methyl-1H-indazole-3-carboxamide]	2500 to 10000
CNC(=O)c1n[nH]c2c(F)c(-c3c(F)ccc(NS(=O)(=O)C4CCOCC4)c3F)ccc12 [Example 75, 6-[2,6-difluoro-3-(oxane-4-sulfonamido)phenyl]-7-fluoro-N-methyl-1H-indazole-3-carboxamide]	2500 to 10000
CNC(=O)c1n[nH]c2c(F)c(-c3c(F)ccc(NS(=O)(=O)c4cc(F)cc5c4CCC5O)c3F)ccc12 (stereo not drawn) [Example 76, 6-[2,6-Difluoro-3-(6-fluoro-1-hydroxy-2,3-dihydro-1H-indene-4-sulfonamido)phenyl]-7-fluoro-N-methyl-1H-indazole-3-carboxamide]	< 500
CNC(=O)c1n[nH]c2c(F)c(-c3c(F)ccc(NS(=O)(=O)C4CCCN(C)C4)c3F)ccc12 (stereo not drawn) [Example 77, 6-[2,6-difluoro-3-(1-methylpiperidine-3-sulfonamido)phenyl]-7-fluoro-N-methyl-1H-indazole-3-carboxamide]	2500 to 10000
COc1ncc(Cl)cc1S(=O)(=O)Nc1ccc(F)c(-c2ccc3c(C(=O)NC4CCCC4)n[nH]c3c2F)c1F [Example 79, 6-[3-(5-Chloro-2-methoxypyridine-3-sulfonamido)-2,6-difluorophenyl]-N-cyclopentyl-7-fluoro-1H-indazole-3-carboxamide]	< 500
COc1ncc(Cl)cc1S(=O)(=O)Nc1ccc(F)c(-c2ccc3c(C(=O)NC4CCCC(O)C4)n[nH]c3c2F)c1F (stereo not drawn) [Example 80, 6-[3-(5-Chloro-2-methoxypyridine-3-sulfonamido)-2,6-difluorophenyl]-7-fluoro-N-(3-hydroxycyclohexyl)-1H-indazole-3-carboxamide]	< 500
COc1ncc(Cl)cc1S(=O)(=O)Nc1ccc(F)c(-c2ccc3c(C(=O)NC4CC4)n[nH]c3c2F)c1F [Example 81, 6-[3-(5-Chloro-2-methoxypyridine-3-sulfonamido)-2,6-difluorophenyl]-N-cyclopropyl-7-fluoro-1H-indazole-3-carboxamide]	< 500
COc1ncc(Cl)cc1S(=O)(=O)Nc1ccc(F)c(-c2ccc3c(C(=O)NCC4CCOCC4)n[nH]c3c2F)c1F [Example 82]	< 500
COc1ncc(Cl)cc1S(=O)(=O)Nc1ccc(F)c(-c2ccc3c(C(=O)NCCN4CCCC4)n[nH]c3c2F)c1F [Example 83, 6-[3-(5-chloro-2-methoxypyridine-3-sulfonamido)-2,6-difluorophenyl]-7-fluoro-N-[2-(pyrrolidin-1-yl)ethyl]-1H-indazole-3-carboxamide]	< 500
COc1ncc(Cl)cc1S(=O)(=O)Nc1ccc(F)c(-c2ccc3c(C(=O)NCCS(C)(=O)=O)n[nH]c3c2F)c1F [Example 84, 6-[3-(5-Chloro-2-methoxypyridine-3-sulfonamido)-2,6-difluorophenyl]-7-fluoro-N-(2-methanesulfonylethyl)-1H-indazole-3-carboxamide]	< 500
COc1ncc(Cl)cc1S(=O)(=O)Nc1ccc(F)c(-c2ccc3c(C(=O)NCC4CC4)n[nH]c3c2F)c1F [Example 85, 6-[3-(5-Chloro-2-methoxypyridine-3-sulfonamido)-2,6-difluorophenyl]-N-(cyclopropylmethyl)-7-fluoro-1H-indazole-3-carboxamide]	< 500
COc1ncc(Cl)cc1S(=O)(=O)Nc1ccc(F)c(-c2ccc3c(C(=O)NCCN4CCOCC4)n[nH]c3c2F)c1F [Example 86, 6-[3-(5-Chloro-2-methoxypyridine-3-sulfonamido)-2,6-difluorophenyl]-7-fluoro-N-[2-(morpholin-4-yl)ethyl]-1H-indazole-3-carboxamide]	< 500
COc1ncc(Cl)cc1S(=O)(=O)Nc1ccc(F)c(-c2ccc3c(C(=O)NC4CCCC4O)n[nH]c3c2F)c1F (stereo not drawn) [Example 87, 6-[3-(5-Chloro-2-methoxypyridine-3-sulfonamido)-2,6-difluorophenyl]-7-fluoro-N-(2-hydroxycyclopentyl)-1H-indazole-3-carboxamide]	< 500
COc1ncc(Cl)cc1S(=O)(=O)Nc1ccc(F)c(-c2ccc3c(C(=O)NC4CCCCC4O)n[nH]c3c2F)c1F (stereo not drawn) [Example 88, 6-[3-(5-Chloro-2-methoxypyridine-3-sulfonamido)-2,6-difluorophenyl]-7-fluoro-N-(2-hydroxycyclohexyl)-1H-indazole-3-carboxamide]	< 500
C#CC(C)(C)NC(=O)c1n[nH]c2c(F)c(-c3c(F)ccc(NS(=O)(=O)c4cc(Cl)cnc4OC)c3F)ccc12 [Example 89, 6-[3-(5-Chloro-2-methoxypyridine-3-sulfonamido)-2,6-difluorophenyl]-7-fluoro-N-(2-methylbut-3-yn-2-yl)-1H-indazole-3-carboxamide]	< 500
COc1ncc(Cl)cc1S(=O)(=O)Nc1ccc(F)c(-c2ccc3c(C(=O)NCC(F)(F)F)n[nH]c3c2F)c1F [Example 90, 6-[3-(5-Chloro-2-methoxypyridine-3-sulfonamido)-2,6-difluorophenyl]-7-fluoro-N-(2,2,2-trifluoroethyl)-1H-indazole-3-carboxamide]	< 500
COc1ncc(Cl)cc1S(=O)(=O)Nc1ccc(F)c(-c2ccc3c(C(=O)NC(C#N)C4CC4)n[nH]c3c2F)c1F (stereo not drawn) [Example 91, 6-[3-(5-Chloro-2-methoxypyridine-3-sulfonamido)-2,6-difluorophenyl]-N-[cyano(cyclopropyl)methyl]-7-fluoro-1H-indazole-3-carboxamide]	< 500
C#CCNC(=O)c1n[nH]c2c(F)c(-c3c(F)ccc(NS(=O)(=O)c4cc(Cl)cnc4OC)c3F)ccc12 [Example 92, 6-[3-(5-Chloro-2-methoxypyridine-3-sulfonamido)-2,6-difluorophenyl]-7-fluoro-N-(prop-2-yn-1-yl)-1H-indazole-3-carboxamide]	< 500
COc1ncc(Cl)cc1S(=O)(=O)Nc1ccc(F)c(-c2ccc3c(C(=O)NCC4CCCNC4)n[nH]c3c2F)c1F (stereo not drawn) [Example 93, 6-[3-(5-Chloro-2-methoxypyridine-3-sulfonamido)-2,6-difluorophenyl]-7-fluoro-N-(piperidin-3-ylmethyl)-1H-indazole-3-carboxamide]	< 500
COc1ncc(Cl)cc1S(=O)(=O)Nc1ccc(F)c(-c2ccc3c(C(=O)NC4CCCCC4N)n[nH]c3c2F)c1F (stereo not drawn) [Example 94, N-(2-Aminocyclohexyl)-6-[3-(5-chloro-2-methoxypyridine-3-sulfonamido)-2,6-difluorophenyl]-7-fluoro-1H-indazole-3-carboxamide]	500 to 2500
COc1ncc(Cl)cc1S(=O)(=O)Nc1ccc(F)c(-c2ccc3c(C(=O)NC(C)CN)n[nH]c3c2F)c1F (stereo not drawn) [Example 95, N-(1-Aminopropan-2-yl)-6-[3-(5-chloro-2-methoxypyridine-3-sulfonamido)-2,6-difluorophenyl]-7-fluoro-1H-indazole-3-carboxamide]	< 500
COc1ncc(Cl)cc1S(=O)(=O)Nc1ccc(F)c(-c2ccc3c(C(=O)NC4CCC(=O)CC4)n[nH]c3c2F)c1F [Example 96, 6-[3-(5-Chloro-2-methoxypyridine-3-sulfonamido)-2,6-difluorophenyl]-7-fluoro-N-(4-oxocyclohexyl)-1H-indazole-3-carboxamide]	< 500
COc1ncc(Cl)cc1S(=O)(=O)Nc1ccc(F)c(-c2ccc3c(C(=O)NC4CCC(O)C4)n[nH]c3c2F)c1F (stereo not drawn) [Example 97, 6-[3-(5-Chloro-2-methoxypyridine-3-sulfonamido)-2,6-difluorophenyl]-7-fluoro-N-(3-hydroxycyclopentyl)-1H-indazole-3-carboxamide]	< 500
COc1ncc(Cl)cc1S(=O)(=O)Nc1ccc(F)c(-c2ccc3c(C(=O)NC4CCCC(N)C4)n[nH]c3c2F)c1F (stereo not drawn) [Example 98, N-(3-Aminocyclohexyl)-6-[3-(5-chloro-2-methoxypyridine-3-sulfonamido)-2,6-difluorophenyl]-7-fluoro-1H-indazole-3-carboxamide]	< 500
COc1ncc(Cl)cc1S(=O)(=O)Nc1ccc(F)c(-c2ccc3c(C(=O)NCCN4CCCC4=O)n[nH]c3c2F)c1F [Example 99, 6-[3-(5-Chloro-2-methoxypyridine-3-sulfonamido)-2,6-difluorophenyl]-7-fluoro-N-[2-(2-oxopyrrolidin-1-yl)ethyl]-1H-indazole-3-carboxamide]	< 500
COc1ncc(Cl)cc1S(=O)(=O)Nc1ccc(F)c(-c2ccc3c(C(=O)NCC4CCN(C)C4)n[nH]c3c2F)c1F (stereo not drawn) [Example 100, 6-[3-(5-Chloro-2-methoxypyridine-3-sulfonamido)-2,6-difluorophenyl]-7-fluoro-N-[(1-methylpyrrolidin-3-yl)methyl]-1H-indazole-3-carboxamide]	< 500
